Source: ChEMBL document CHEMBL5724914, “Linking interpersonal differences in gut microbiota composition and drug biotransformation activity” (2024)

Tests used:
[1] = (§1) The drug is tested on WLS-240 corresponding to human gut metagenome with ENA study accession number: PRJEB37062 and ENA sample accession number: ERS12561773 for biotransformation under anaerobic condition. The drug concentrations were measured over 9 timepoints collected between 0 and 24 hours of incubation by liquid-chromatography-coupled mass spectrometry (LC–MS); conditions: 2 µM
[2] = as §1, with “Z-013” for “WLS-240”, “rabbit” for “human”, “ERS12561813” for “ERS12561773”; conditions: 2 µM
[3] = as §1, with “Z-010” for “WLS-240”, “to” for “to human gut”, “ERS12561810” for “ERS12561773”; conditions: 2 µM
[4] = human gut metagenome, 24 h, 2 µM
[5] = as §1, with “Z-003” for “WLS-240”, “pig” for “human”, “ERS12561803” for “ERS12561773”; conditions: 2 µM
[6] = human gut metagenome, 24 h, 2 µM; remark: listed apart in the source
[7] = as §1, with “WLS-350” for “WLS-240”, “ERS12561789” for “ERS12561773”; conditions: 2 µM
[8] = human gut metagenome, 24 h, 2 µM; remark: listed apart in the source
[9] = as §1, with “Z-027” for “WLS-240”, “to” for “to human gut”, “ERS12561826” for “ERS12561773”; conditions: 2 µM
[10] = as §1, with “WLS-220” for “WLS-240”, “ERS12561769” for “ERS12561773”; conditions: 2 µM
[11] = human gut metagenome, 24 h, 2 µM; remark: listed apart in the source
[12] = human gut metagenome, 24 h, 2 µM; remark: listed apart in the source
[13] = human gut metagenome, 24 h, 2 µM; remark: listed apart in the source
[14] = as §1, with “Z-026” for “WLS-240”, “to” for “to human gut”, “ERS12561825” for “ERS12561773”; conditions: 2 µM
[15] = human gut metagenome, 24 h, 2 µM; remark: listed apart in the source
[16] = human gut metagenome, 24 h, 2 µM; remark: listed apart in the source
[17] = as §1, with “Z-004” for “WLS-240”, “to” for “to human gut”, “ERS12561804” for “ERS12561773”; conditions: 2 µM
[18] = human gut metagenome, 24 h, 2 µM; remark: listed apart in the source
[19] = as §1, with “WLS-370” for “WLS-240”, “ERS12561793” for “ERS12561773”; conditions: 2 µM
[20] = as §1, with “Z-020” for “WLS-240”, “rabbit” for “human”, “ERS12561819” for “ERS12561773”; conditions: 2 µM
Further: call rule not given here.

| Bacterial Biotransformation [1] | Bacterial Biotransformation [2] | Bacterial Biotransformation [3] | Bacterial Biotransformation [4] | Bacterial Biotransformation [5] | Bacterial Biotransformation [6] | Bacterial Biotransformation [7] | Bacterial Biotransformation [8] | Bacterial Biotransformation [9] | Bacterial Biotransformation [10] | Bacterial Biotransformation [11] | Bacterial Biotransformation [12] | Bacterial Biotransformation [13] | Bacterial Biotransformation [14] | Bacterial Biotransformation [15] | Bacterial Biotransformation [16] | Bacterial Biotransformation [17] | Bacterial Biotransformation [18] | Bacterial Biotransformation [19] | Bacterial Biotransformation [20] | Structure (SMILES) |
| --- | --- | --- | --- | --- | --- | --- | --- | --- | --- | --- | --- | --- | --- | --- | --- | --- | --- | --- | --- | --- |
| Compound metabolized | Compound NOT metabolized | Compound metabolized | Compound NOT metabolized | Compound NOT metabolized | Compound NOT metabolized | Compound metabolized | Compound NOT metabolized | Compound NOT metabolized | Compound metabolized | Compound metabolized | Compound metabolized | Compound metabolized | Compound NOT metabolized | Compound metabolized | Compound metabolized | Compound metabolized | Compound metabolized | Compound NOT metabolized | Compound NOT metabolized | Nc1nc(NC2CC2)c2ncn([C@H]3C=C[C@@H](CO)C3)c2n1.Nc1nc(NC2CC2)c2ncn([C@H]3C=C[C@@H](CO)C3)c2n1.O=S(=O)(O)O [ABACAVIR SULFATE] |
| Compound metabolized | Compound NOT metabolized | Compound NOT metabolized | Compound NOT metabolized | Compound NOT metabolized | Compound NOT metabolized | Compound NOT metabolized | Compound NOT metabolized | Compound NOT metabolized | Compound NOT metabolized | Compound metabolized | Compound NOT metabolized | Compound metabolized | Compound NOT metabolized | Compound metabolized | Compound NOT metabolized | Compound NOT metabolized | Compound NOT metabolized | Compound NOT metabolized | Compound NOT metabolized | CCN(CC)CCNC(=O)c1ccc(NC(C)=O)cc1 [ACECAINIDE] |
| Compound metabolized | Compound NOT metabolized | Compound metabolized | Compound metabolized | Compound NOT metabolized | Compound NOT metabolized | Compound NOT metabolized | Compound metabolized | Compound NOT metabolized | Compound metabolized | Compound metabolized | Compound NOT metabolized | Compound metabolized | Compound NOT metabolized | Compound metabolized | Compound NOT metabolized | Compound NOT metabolized | Compound NOT metabolized | Compound NOT metabolized | Compound NOT metabolized | O=C1CN2Cc3c(ccc(Cl)c3Cl)N=C2N1 [ANAGRELIDE] |
| Compound metabolized | Compound NOT metabolized | Compound metabolized | Compound metabolized | Compound metabolized | Compound metabolized | Compound metabolized | Compound metabolized | Compound metabolized | Compound metabolized | Compound metabolized | Compound metabolized |  | Compound metabolized | Compound metabolized | Compound metabolized | Compound metabolized | Compound metabolized | Compound metabolized | Compound metabolized | CC(=O)OCC(=O)NCCCOc1cccc(CN2CCCCC2)c1 [ROXATIDINE ACETATE] |

Continued, molecule first:

| Structure (SMILES) | Bacterial Biotransformation [1] | Bacterial Biotransformation [2] | Bacterial Biotransformation [3] | Bacterial Biotransformation [4] | Bacterial Biotransformation [5] | Bacterial Biotransformation [6] | Bacterial Biotransformation [7] | Bacterial Biotransformation [8] | Bacterial Biotransformation [9] | Bacterial Biotransformation [10] | Bacterial Biotransformation [11] | Bacterial Biotransformation [12] | Bacterial Biotransformation [13] | Bacterial Biotransformation [14] | Bacterial Biotransformation [15] | Bacterial Biotransformation [16] | Bacterial Biotransformation [17] | Bacterial Biotransformation [18] | Bacterial Biotransformation [19] | Bacterial Biotransformation [20] |
| --- | --- | --- | --- | --- | --- | --- | --- | --- | --- | --- | --- | --- | --- | --- | --- | --- | --- | --- | --- | --- |
| CCN(CC)C(=O)C1(c2ccccc2)CC1CN (configuration not stated) | Compound NOT metabolized | Compound NOT metabolized | Compound NOT metabolized | Compound NOT metabolized | Compound NOT metabolized | Compound NOT metabolized | Compound NOT metabolized | Compound NOT metabolized | Compound NOT metabolized | Compound NOT metabolized | Compound NOT metabolized | Compound NOT metabolized | Compound NOT metabolized | Compound NOT metabolized | Compound NOT metabolized | Compound NOT metabolized | Compound NOT metabolized | Compound NOT metabolized | Compound NOT metabolized | Compound NOT metabolized |
| CN(C)C(=O)Oc1cc(OC(=O)N(C)C)cc(C(O)CNC(C)(C)C)c1 (configuration not stated) [BAMBUTEROL] | Compound metabolized | Compound NOT metabolized | Compound NOT metabolized | Compound NOT metabolized | Compound NOT metabolized | Compound NOT metabolized | Compound metabolized | Compound metabolized | Compound NOT metabolized | Compound metabolized | Compound metabolized | Compound NOT metabolized | Compound metabolized | Compound NOT metabolized | Compound metabolized | Compound NOT metabolized | Compound metabolized | Compound metabolized | Compound NOT metabolized | Compound NOT metabolized |
| Cc1cc2c(s1)Nc1ccccc1N=C2N1CCN(C)CC1 [OLANZAPINE] | Compound NOT metabolized | Compound NOT metabolized | Compound NOT metabolized | Compound metabolized | Compound metabolized | Compound NOT metabolized | Compound NOT metabolized | Compound NOT metabolized | Compound NOT metabolized | Compound NOT metabolized | Compound NOT metabolized | Compound metabolized |  | Compound NOT metabolized | Compound metabolized | Compound NOT metabolized | Compound metabolized | Compound NOT metabolized | Compound NOT metabolized | Compound NOT metabolized |
| COc1cc(C(=O)NCc2ccc(OCCN(C)C)cc2)cc(OC)c1OC [TRIMETHOBENZAMIDE] | Compound NOT metabolized | Compound NOT metabolized | Compound NOT metabolized | Compound NOT metabolized | Compound NOT metabolized | Compound NOT metabolized | Compound NOT metabolized | Compound NOT metabolized | Compound NOT metabolized | Compound NOT metabolized |  | Compound NOT metabolized | Compound NOT metabolized | Compound NOT metabolized | Compound NOT metabolized | Compound NOT metabolized | Compound NOT metabolized | Compound NOT metabolized | Compound NOT metabolized | Compound NOT metabolized |
